Read-outs that look alike come from different tables or passages of the source. No end group written: not given here.
Tests used:
[1] = tested on: K^+ depolarized arteries (iliac rings); assay: Contractile responses to CaCl2 in K^+ depolarized iliac rings from cynomolgus monkeys; parameters: species or system cynomolgus (Macaca fascicularis) monkeys; settings: Mean ± SEM
Excerpt: (§1) Twenty-four male cynomolgus (Macaca fascicularis) monkeys were divided into four groups of six animals each. During the course of the study, one of the control monkeys was sacrificed due to ill health unrelated to the study. Each group was fed a different diet for six months. The control group ate a normal diet of monkey biscuit. The cholesterol group ate a specially formulated monkey diet containing cholesterol. The cholesterol +low captopril group ate the cholesterol diet supplemented with captopril (50 mg/kg divided into two daily doses). The cholesterol+high captopril group ate the cholesterol diet and a higher total dose of captopril (100 mg/kg divided into two daily doses).
(§2) The monkeys were sedated with an intramuscular injection of ketamine (10 mg/kg), then anesthetized with pentobarbital (25 mg/kg). The iliac arteries were carefully dissected, cleaned of surrounding connective tissue, and refrigerated overnight for use the following day.
(§3) On the day of the experiment, three iliac rings (3 mm wide) from each animal were cut and mounted for isometric force recording. Each ring was attached to a micrometer for the control of muscle length and to a Grass FT.03 force transducer and Grass 7D recorder. The rings were placed in warm (37° C.), oxygenated, physiological salt solution (PSS) of the following composition (in mM): 140.0 NaCl, 4.7 KCl, 1.2 MgSO4, 1.6 CaCl2, 1.2 NaH2 PO4, 5.6 D-glucose, 2.0 2-(N-morpholino)propanesulfonic acid (MOPS, pH 7.4 at 37° C.), and 0.02 Na2 -ethylenediaminetetraacetic acid (EDTA). The rings were stretched to a preload of 5 g during a 2 hour equilibration period, then stimulated with 1 μM phenylephrine to test for viability and relaxed with 100 nM acetylcholine to test for endothelial function. Stock solutions of phenylphrine, acetylcholine, propranolol, and sodium nitroprusside were prepared daily in water; nifedipine stock solutions were prepared daily in ethanol.
(§4) The voltage-dependent calcium channels were studied in one ring from each monkey. The protocol consisted of depleting the cells of calcium by exposing the rings to a Ca-free, EGTA (ethylene glycol-bis(β-aminoethyl ether)N,N,N',N'-tetraacetic acid) PSS (omission of CaCl2 and addition of 0.1 mM EGTA) for 30 minutes. The EGTA was subsequently removed from the tissues with three washes of Ca-free PSS (simple omission of CaCl2). Following that, the rings were bathed in Ca-free, K^+ PSS (omission of CaCl2 and isoosmotic substitution of KCl for NaCl such that the KCl concentration was 110 mM) for 30 minutes. A CaCl2 concentration-response curve was obtained by replacing the bath solution with K^+ PSS containing incremental increases in CaCl2 concentration (0.1, 0.3, 0.5, 1.0, 1.25, 1.6, and 2.5 mM). The maximal contractions, in response to 2.5 mM CaCl2, were then relaxed incrementally with nifedipine. Another iliac ring (fade control) from each monkey was subjected to the same protocol with the exception that the strips were allowed to remain contracted and the nifedipine concentration-response curve was not obtained. Some fade of the CaCl2 -induced force was observed over the time period required for the nifedipine concentration-response curve. This fade was accounted for by decreasing the amount of relaxation observed upon addition of nifedipine by the amount of fade observed in the time control from the same monkey.
(§5) Data are presented as mean±SEM. The IC50 and EC50 values were estimated by linearly interpolating from the concentration-response curves. The EC50 values for each ring were used to determine the means for each treatment group.
Concentration-response curves to CaCl2 in K^+ depolarized rings were obtained following depletion of tissue calcium by repeated washing in Ca-free PSS first with, then without, EGTA. There were no differences in the responses to CaCl2 among any of the treatment groups (Table 1).

[2] = tested on: vascular relaxation in response to EN-D (ACh) and EN-I (Na nitroprusside) agonists; settings: rats, cited from earlier work; for vascular relaxations in response to EN-D (ACh) and EN-I (Na nitroprusside) agonists: oral
[3] = tested on: rabbit or human platelets; settings: in vitro; cited from earlier work
guinea pig or rat lungs = settings: infusion through guinea pig or rat lungs; cited from earlier work
rat stomach = settings: in vitro; cited from earlier work
rat mesenteric veins = settings: cited from earlier work
rabbit veins = settings: in vitro; cited from earlier work
[4] = tested on: delayed cerebral vasospasm of the basilar artery and its branches; settings: by injection; Gavras et al; cited from earlier work
[5] = tested on: delayed cerebral arteriospasm; settings: cited from earlier work
[6] = tested on: acute cerebral arteriospasm; settings: after subarachnoid hemorrhage, dog, angiographic; cited from earlier work
[7] = tested on: isolated aorta from hypertensive rats; settings: cited from earlier work
[8] = tested on: phenylephrine-contracted isolated iliac arteries; assay: Acetylcholine-induced relaxation of phenylephrine-contracted isolated iliac arteries from cynomolgus monkeys; parameters: species or system cynomolgus (Macaca fascicularis) monkeys; settings: for EC50: Macaca fascicularis, non-responder excluded, Mean ± SEM; for maximum force generated in response to phenylephrine (before acetylcholine): non-responders excluded, mean±SEM
Excerpt: as §1, §2, §3
(§6) Alpha-adrenoceptor and endothelial cell function were examined in the third ring from each monkey. In the presence of 0.1 μM propranolol, a cumulative concentration-response curve to phenylephrine was obtained, then the phenylephrine was washed out of the baths and the rings were allowed to relax completely. The rings were subsequently contracted with an EC50 concentration of phenylephrine (1 μM) and, following stabilization of the contraction, the rings were treated with increasing concentrations of acetylcholine, followed by 100 nM sodium nitroprusside.
as §5
For each monkey, the EC50 for acetylcholine relaxation was calculated by linearly interpolating from the concentration-response curves. When 50% relaxation was not achieved, the value of the EC50 was set to 30 μM a value larger than any of the experimental concentrations of acetylcholine).
Linear contrast of mean ranks in the groups were constructed with a variance estimate for the contrast based on the Kruskal-Wallis statistic (Dunn 1964).
In the analyses, the following coefficients were employed: i) for an overall test, the coefficients were 3 for the cholesterol group, 1 for the control group, -1 for the cholesterol+low captopril group, and -3 for the cholesterol+high captopril group, based on prior expectations of likely results; ii) for a test of the cholesterol effect, the coefficients were 1 for the cholesterol group, -1 for the control group, 0 for the cholestrol+low captopril group, and 0 for the cholesterol+high captopril group; iii) for a test of the captopril effect, the coefficients were 0 for the cholesterol group, 1 for the […], 0 for the cholesterol+low captopril group, and -1 for the cholesterol+high captopril group.
All statistical results reported are based on one-sided tests. […]

isolated rat hearts = settings: interaction with ARG-I, ARG-II and BK; Schoelkens et al; cited from earlier work
[9] = tested on: voltage-dependent calcium channels (iliac rings); assay: Relaxation responses to nifedipine of CaCl2-contracted iliac rings from cynomolgus monkeys; parameters: species or system cynomolgus (Macaca fascicularis) monkeys; settings: Macaca fascicularis, contracted with 2.5 mM CaCl2 in K^+ PSS, mean±SEM
Excerpt: as §1, §2, §3, §4
Data are presented as mean±SEM. The IC50 and EC50 values were estimated by linearly interpolating from the concentration-response curves. […]

angina patients = settings: 12 angina patients; Thuermann et al; cited from earlier work
[10] = tested on: alpha-adrenoceptor (isolated iliac arteries); assay: Contractile responses to phenylephrine of isolated iliac arteries from cynomolgus monkeys; parameters: species or system cynomolgus (Macaca fascicularis) monkeys; settings: Mean ± SEM; for EC50: Macaca fascicularis, read-out: EC50 (phenylephrine-induced contraction)
Excerpt: as §1, §2, §3, §6, §5
Phenylephrine concentration-response curves were obtained in iliac rings from all groups of monkeys.

With `[Ca+2].[Cl-].[Cl-]` [CaCl2] the EC50 ([1]; Cholesterol group) was 200000 ± 30000 nM, the “Max Force (CaCl2)” value ([1]; Cholesterol group) was 18.2 ± 1.6 g and the EC50 ([1]; Control group) was 140000 ± 10000 nM. The “Max Force (CaCl2)” value ([1]; Control group) was 18.5 ± 1.1 g.

For `Oc1cccc(O)c1O` [pyrogallol], the “effect on ACh-induced relaxation” value [2] is given as “did inhibit ACh-induced relaxations”.

For “endothelin: endothelin (EL) (CSCSSLMDKECVYFCHLDIIW; ends and bridges not checked; cysteine pairing not given here; UniProt P05305 53-73, looked up)”, the platelet aggregation [3] is listed as “did not aggregate rabbit or human platelets or prevent their aggregation”, the “release of PG12 and TXA2” value (guinea pig or rat lungs) is listed as “release PG12 and TXA2” and the “contraction of rat stomach” value (rat stomach) is listed as “contracted rabbit veins and rat stomach”. The vasoconstriction (rat mesenteric veins; at higher doses) was “vasoconstriction”, the “dilatation of rat mesenteric veins” value (rat mesenteric veins; via EDRF release) was “dilated rat mesenteric veins” and the “contraction of rabbit veins” value (rabbit veins) was “contracted rabbit veins”.

For `NNc1nncc2ccccc12` [hydralazine], the “vascular relaxations in response to EN-D (ACh) and EN-I (Na nitroprusside) agonists” value [2] is listed as “differentially affected vascular relaxations”.

In the case of `CC[C@H](C)[C@H](NC(=O)[C@H](CCC(N)=O)NC(=O)[C@@H]1CCCN1C(=O)[C@H](CCCNC(=N)N)NC(=O)[C@@H]1CCCN1C(=O)[C@H](Cc1c[nH]c2ccccc12)NC(=O)[C@@H]1CCC(=O)N1)C(=O)N1CCC[C@H]1C(=O)N1CCC[C@H]1C(=O)O` [teprotide], the “release of delayed cerebral vasospasm” value [4] is given as “partial or total release”, the “effect on delayed established cerebral arteriospasm” value ([5]; dog, in vivo) is given as “could reverse that spasm as well” and the “effect on acute cerebral arteriospasm” value [6] is given as “effective”.

In the case of `COc1ccc2c(c1)c(CC(=O)O)c(C)n2C(=O)c1ccc(Cl)cc1` [Indomethacin], the “effect on ACh-induced relaxation” value [2] is listed as “did not prevent the effect of ACh” and the “effect on relaxation responses” value ([7]; isolated aorta, hypertensive and normotensive rats) is listed as “unaffected”.

In the case of `CC(=O)OCC[N+](C)(C)C` [acetylcholine], the EC50 ([8]; Cholesterol group, N 5, EC50 set at 30 μM if <50% relaxation) is reported as 16200 ± 7200 nM and the EC50 ([8]; Control group, N 4) is reported as 300 ± 100 nM.

For `CCOC(=O)[C@H](CCc1ccccc1)N[C@@H](C)C(=O)N1[C@H](C(=O)O)C[C@@H]2CCC[C@@H]21` [ramipril], the local cardioprotective actions (isolated rat hearts) is listed as “BK is involved in the local cardioprotective actions of RP”.

In the case of `COC(=O)C1=C(C)NC(C)=C(C(=O)OC)C1c1ccccc1[N+](=O)[O-]` [nifedipine], the IC50 ([9]; cholesterol group) is reported as 22.8 ± 5.6 nM, the IC50 ([9]; cholesterol+high captopril group) is reported as 11.5 ± 1.8 nM and the IC50 ([9]; cholesterol+low captopril group) is reported as 18.8 ± 6.6 nM. The IC50 ([9]; control group) was 11.4 ± 2.3 nM.

In the case of `C[C@H](N[C@@H](CCc1ccccc1)C(=O)O)C(=O)N1CCC[C@H]1C(=O)O` [MK-422], the “restoring arterial width in delayed cerebral arteriospasm” value ([5]; four dogs, injectable form, unpublished data, preliminary) is given as “at least as effective as teprotide”.

For `CCOC(=O)C(CCc1ccccc1)N[C@@H](C)C(=O)N1CCC[C@H]1C(=O)O` (stereo partly drawn) [enalapril, N-(1-ethoxycarbonyl-3-phenylpropyl)-L-alanyl-L-proline], the anti-ischemic effect (angina patients) is given as “shown to have an anti-ischemic effect”, the “vascular relaxations in response to EN-D (ACh) and EN-I (Na nitroprusside) agonists” value [2] is given as “differentially affected vascular relaxations” and the “normalization of relaxation responses and prevention of hypertension” value ([7]; P.o., salt-induced hypertension, rat) is given as “ineffective”.

With `CNC[C@H](O)c1cccc(O)c1` [phenylephrine] the “maximum force generated in response to phenylephrine (before acetylcholine)” value ([8]; cholesterol group) was 11.0 ± 2.6 g, the “maximum force generated in response to phenylephrine (before acetylcholine)” value ([8]; control group) was 14.3 ± 1.4 g and the “Max Force (phenylephrine-induced contraction)” value ([10]; Cholesterol group) was 17.3 ± 3.3 g. For the same compound, the “Max Force (phenylephrine-induced contraction)” value ([10]; Control group) was 22.5 ± 1.6 g, the EC50 ([10]; Cholesterol group) was 1200 ± 300 nM and the EC50 ([10]; Control group) was 800 ± 100 nM.

From patent US5212165A, “Method for rehabilitating the vasorelaxant action of the coronary arteries impaired through atherosclerosis or hypercholesterolemia employing an ACE inhibitor” (E. R. Squibb & Sons, Inc., priority 1989, dated 1993)
